How the values were obtained:
adenylate cyclase-cAMP = assay: cAMP assay in human enteroid monolayers exposed to FSK; type: cell-based; conditions: nanoparticles with 250-nM peptide, FSK (10 μM) 45 min, CP-2 vs N3SP-1Δ7
Protocol: Human jejunal enteroid monolayers on Transwell inserts (Corning Cat #: 3470) were differentiated for 5 days and then in serum-free media were exposed apically to nanoparticles containing either 250-nM CP-2 or N3SP-1Δ7. The peptide and polymer in PBS were prepared just before use, allowed to combine for 10 min before being added to the apical surface of enteroid monolayers at room temperature. Monolayers were incubated for 4 hours at 37° C., 5% CO2 incubator before the nanoparticles were removed, then monolayers were washed 3 times with cold PBS and changed to differentiation media and moved to a 37° C. incubator. Differentiation media was removed 24 hours later and washed twice with CMGF-media (Advanced DMEM/F12 with 10-mM Hepes, 10-mM GlutaMax, and 1000 Units/mL Penn/Strep). Next, 100 μL of CMGF-media containing 10-mM Theophylline, 50-μM Cilostazol and 50-μM Rolipram was added to the apical and basolateral surfaces followed by exposure to FSK (10 μM) at 37° C., 5% CO2, for 45 min before apical and basolateral media were collected and cells were lysed in 200-μL 0.1 M HCl for cAMP analysis. CAMP in apical, basolateral, and cells was determined using nonradioactive, CAMP-ELISA kits from ENZO Life Sciences (Loerrach, German), using the acetylation protocol in which the yellow-colored product is inversely proportional to the amount of CAMP present in the sample.

[1] = Nanoparticle characterization: hydrodynamic diameter, zeta potential, stability; type: physicochemical; conditions: CR5 with peptide, 30:1 polymer:peptide weight ratio
Protocol: PBAE polymer and peptide were separately dissolved in pH 7.4 150-mM PBS and combined at a 1:1 volume ratio. Final concentrations of the components were 6-ng/μL peptide and 180-ng/μL polymer (30:1 polymer: peptide weight ratio). Polymer and peptide nanoparticles were allowed to self-assemble at room temperature for 10 minutes. For characterization, nanoparticles were diluted 1:5 in PBS. Hydrodynamic diameter and zeta potential were measured using a Malvern Zetasizer Pro (Malvern Panalytical, Malvern, UK). Stability was assessed by incubating nanoparticles at RT up to 45 minutes then measuring hydrodynamic diameter over 45 minutes. Nanoparticles were made immediately prior to each experiment.

mouse ileal loops [2] = assay: CTx-induced fluid secretion in closed mouse ileal loops, nanoparticle-conjugated peptides; type: in vivo
Protocol: (§1) All in vivo studies were performed on 8-12 week old C57B1/6N mice anesthetized with isofluorane and kept at 37° C. via heating lamps and rectal thermal probes.
(§2) Effect on basal fluid transport and effect of Tenapanor. Mice operated on as above had 3-4 cm closed ileal loops inoculated with 150-μL PBS containing 400-nM nanoparticle-CP-2 or -N3SP-1Δ7. After 4 h, the loops were drained and inoculated with 150-μL PBS. 30 min later, the animals were sacrificed and loop weight/length determined. In parallel studies, Tenapanor (10 μM) was present in both incubation periods. Similar to the BODIPY-conjugated peptide studies, the effects of nanoparticle-CP-2 or N3SP-1Δ7 (4 μM) compared to PBS alone were determined on net fluid secretion produced by inoculation of 0.1-μg CTx. The nanoparticle-peptides plus 0.1-μg CTx in 150-μL PBS were inoculated in 3-4 cm long closed ileal loops. Additional controls included loops exposed only to 150-μL PBS and those only exposed to the CTx/PBS. 4 h later, the animals were sacrificed and loop weight/cm length was determined.

mouse ileal loops [3] = assay: Basal fluid absorption in closed mouse ileal loops, nanoparticle-conjugated peptides, with or without Tenapanor; type: in vivo; conditions: for residual fluid / fluid absorption in closed ileal loops compared to CP2: nanoparticle conjugated peptide 400 nM for 4 h, then 150-μL PBS for 30 min
Protocol: as §1, §2

Substance: N3SP-1 lacking first seven N-terminal amino acids: RPSTVEASVSYLLRESASAVCLDMQSLEQRR [Peptide N3SP-1Δ7]
- FSK-increased intracellular cAMP (adenylate cyclase-cAMP): similar
- surface zeta potential (electrophoretic light scattering) [1]: 22.4±1.2 mV
- nanoparticle diameter (DLS) ([1]; aqueous): 385±30 nm
- reduction of cholera toxin induced secretion (mouse ileal loops [2]; mouse, in vivo): approximately 42%
- effect on CTx-induced fluid in ileal loops (loop weight/length) (mouse ileal loops [2]; nanoparticle-peptide 4 μM with 0.1-μg CTx, 4 hours): significantly less fluid
- residual fluid / fluid absorption in closed ileal loops compared to CP2 (mouse ileal loops [3]): increased fluid absorption
- residual fluid / fluid absorption in closed ileal loops compared to CP2 (mouse ileal loops [3]; listed as N3SP-147): significantly less amount of residual fluid
- residual fluid in presence of Tenapanor, CP2 vs N3SP-1Δ7 (mouse ileal loops [3]; nanoparticle conjugated peptide 400 nM, Tenapanor (10 μM) in both incubation periods): no difference in residual fluid
